The source of these data is patent publication US20130158075A1, “HETEROCYCLIC COMPOUNDS AS DGAT1 INHIBITORS” (PIRAMAL ENTERPRISES LIMITED, priority 2010, published 2013).

Structures can show the parent of a compound that is named as a salt.

In one assay the target is T1, hDGAT1 (Homo sapiens, UniProt O75907).
T1 construct: made in house; host or cells: Sf9 insect cells (baculovirus); microsomal fraction
T1 sequence (O75907 1-488): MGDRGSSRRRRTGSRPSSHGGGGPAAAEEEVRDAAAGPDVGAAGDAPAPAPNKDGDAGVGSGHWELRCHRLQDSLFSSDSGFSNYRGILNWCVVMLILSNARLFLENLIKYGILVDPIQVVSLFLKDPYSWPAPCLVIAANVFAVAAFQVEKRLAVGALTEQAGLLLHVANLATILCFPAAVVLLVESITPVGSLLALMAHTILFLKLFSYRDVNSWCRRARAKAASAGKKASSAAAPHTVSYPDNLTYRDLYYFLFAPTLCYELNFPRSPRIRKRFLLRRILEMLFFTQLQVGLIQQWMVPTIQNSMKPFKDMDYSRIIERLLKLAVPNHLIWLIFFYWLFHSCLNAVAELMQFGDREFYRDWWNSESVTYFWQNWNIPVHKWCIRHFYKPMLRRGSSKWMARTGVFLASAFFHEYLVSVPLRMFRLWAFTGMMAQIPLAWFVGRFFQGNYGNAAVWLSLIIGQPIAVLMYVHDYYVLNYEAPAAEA
The assay is described as follows: In-vitro DGAT1 assay with hDGAT1 microsomes from Sf9 cells (14C oleoyl CoA, scintillation counting). The format is biochemical. The note with it: at 1 μM. In a few lines: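 Radiolabelled triglyceride formation was measured: heptane extracts were scintillation-counted after a 10-min, 37 °C reaction stopped with alkaline ethanol. Enzyme was human DGAT1 in baculovirus-infected Sf9 microsomal membranes; substrates were 14C oleoyl-CoA plus dioleoylglycerol. Runs were duplicated, and inhibition (%) was related to nM compound concentration.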
Turning to `O=C(Nc1ccc(-c2noc([C@H]3CC[C@H](C(=O)O)CC3)n2)cc1)Nc1ccccc1Cl` [Example 219, (1r,4r)-4-(3-(4-(3-(2-Chlorophenyl)ureido)phenyl)-1,2,4-oxadiazol-5-yl)cyclo hexanecarboxylic acid], the “Percentage inhibition of hDGAT1” value is “+ (20-50% Inhibition)”.
The same measure, in the same setting: the entry for `O=C(Nc1ccc(-c2noc([C@H]3CC[C@H](C(=O)O)CC3)n2)cc1)Nc1ccc(F)cc1F` [Example 221, (1r,4r)-4-(3-(4-(3-(2,4-Difluorophenyl)ureido)phenyl)-1,2,4-oxadiazol-5-yl)cyclohexanecarboxylic acid] is “+ (20-50% Inhibition)”; for `Cc1ccc(NC(=O)Nc2ccc(-c3noc([C@H]4CC[C@H](C(=O)O)CC4)n3)cc2)cc1` [Example 223, (1r,4r)-4-(3-(4-(3-p-Tolylureido)Phenyl)-1,2,4-oxadiazol-5-yl)cyclohexane carboxylic acid] it is “+ (20-50% Inhibition)”.
As to `O=C(Nc1ccc(-c2noc([C@H]3CC[C@H](C(=O)O)CC3)n2)cc1)Nc1cccc(Cl)c1` [Example 225, (1r,4r)-4-(3-(4-(3-(3-Chlorophenyl)ureido)phenyl)-1,2,4-oxadiazol-5-yl)cyclo hexanecarboxylic acid], the “Percentage inhibition of hDGAT1” value is listed as “++ (>50 % Inhibition)”.
The same measure, in the same setting: the entry for `O=C(Nc1ccc(-c2noc([C@H]3CC[C@H](C(=O)O)CC3)n2)cc1)Nc1ccc(Cl)cc1Oc1ccccc1` [Example 227, (1r,4r)-4-(3-(4-(3-(4-Chloro-2-phenoxyphenyl)ureido)phenyl)-1,2,4-oxadiazol-5-yl)cyclohexanecarboxylic acid] is “++ (>50 % Inhibition)”; for `CC(C)(C)c1ccc(C(=O)Nc2ccc(-c3noc([C@H]4CC[C@H](C(=O)O)CC4)n3)cc2)cc1` [Example 229, (1r,4r)-4-(3-(4-(4-tert-Butylbenzamido)phenyl)-1,2,4-oxadiazol-5-yl)cyclo hexane carboxylic acid] it is “+ (20-50% Inhibition)”.
The same measure, in the same setting: for `O=C(Nc1ccc(-c2noc([C@H]3CC[C@H](C(=O)O)CC3)n2)cc1)c1ccc(-c2ccccc2)cc1` [Example 231, (1r,4r)-4-(3-(4-Biphenyl-4-ylcarboxamidophenyl)-1,2,4-oxadiazol-5-yl)cyclo hexanecarboxylic acid] the value was “+ (20-50% Inhibition)”.
On to `O=C(Nc1ccc(-c2noc([C@H]3CC[C@H](C(=O)O)CC3)n2)cc1)c1ccc(OC(F)(F)F)cc1` [Example 233, (1r,4r)-4-(3-(4-(4-(Trifluoromethoxy)benzamido)phenyl)-1,2,4-oxadiazol-5-yl)cyclohexanecarboxylic acid], for which the “Percentage inhibition of hDGAT1” value was “+ (20-50% Inhibition)”.
On the same count and under the same terms, the entry for `CC(C)(CCc1ncc(-c2ccc(NC(=O)Nc3cc(F)cc(F)c3)cc2)s1)C(=O)[O-].[Na+]` [Example 235A, Sodium salt of 4-(5-(4-(3-(3,5-difluorophenyl)ureido)phenyl)thiazol-2-yl)-2,2-dimethylbutanoate] is “++ (>50 % Inhibition)”; for `CC(C)(CCc1ncc(-c2ccc(NC(=O)Nc3cc(F)c(F)cc3F)cc2)s1)C(=O)[O-].[Na+]` [Example 237A, Sodium salt of 2,2-dimethyl-4-(5-(4-(3-(2,4,5-trifluorophenyl)ureido)phenyl)thiazol-2-yl)butanoate] it is “++ (>50 % Inhibition)”.

The same assay, now with this note: read-out: Percentage inhibition of hDGAT1.
Broadly, the inhibition is the relative decrease from the control value, in per cent. As to `O=C(Nc1ccccc1)Nc1ccc(-c2cnc(C3CCC(C(=O)O)CC3)s2)cc1` (stereo not drawn) [Example 192, 4-(5-(4-(3-Phenylureido)phenyl)thiazol-2-yl)cyclohexanecarboxylic acid], the inhibition at 1 µM is greater than 50%.
Take `CC(C)(C)c1ccc(C(=O)Nc2ccc(-c3cnc(C4CCC(C(=O)O)CC4)s3)cc2)cc1` (stereo not drawn) [Example 194, 4-(5-(4-(4-t-Butylbenzamido)phenyl)thiazol-2-yl)cyclohexanecarboxylic acid]: the inhibition at 1 µM is greater than 50%.
Same read-out and setting: for `O=C(Nc1ccc(-c2cnc(C3CCC(C(=O)O)CC3)s2)cc1)c1ccccc1Cl` (stereo not drawn) [Example 196, 4-(5-(4-(2-Chlorobenzamido)phenyl)thiazol-2-yl)cyclohexanecarboxylic acid] the value was 20 to 50%; for `O=C(Nc1ccc(-c2cnc(C3CCC(C(=O)O)CC3)s2)cc1)c1ncc(-c2ccccc2)o1` (stereo not drawn) [Example 198, 4-(5-(4-(5-Phenyloxazole-2-carboxamido)phenyl)thiazol-2-yl)cyclohexane carboxylic acid], greater than 50%.
`O=C(Nc1ccc(-c2cnc(C3CCC(C(=O)O)CC3)o2)cc1)Nc1ccccc1Cl` (stereo not drawn) [Example 204, 4-(5-(4-(3-(2-Chlorophenyl)ureido)phenyl)oxazol-2-yl)cyclohexanecarboxylic acid]: the inhibition at 1 µM is 20 to 50%.
Same read-out and setting: the figure for `O=C(Nc1ccccc1)Nc1ccc(-c2cnc(C3CCC(C(=O)O)CC3)o2)cc1` (stereo not drawn) [Example 206, 4-(5-(4-(3-Phenylureido)phenyl)oxazol-2-yl)cyclohexanecarboxylic acid] is 20 to 50%; for `O=C(Nc1ccc(-c2cnc(C3CCC(C(=O)O)CC3)o2)cc1)Nc1cccc(Cl)c1` (stereo not drawn) [Example 208, 4-(5-(4-(3-(3-Chlorophenyl)ureido)phenyl)oxazol-2-yl)cyclohexanecarboxylic acid] it is greater than 50%.
The same measure, in the same setting: for `COc1ccccc1NC(=O)Nc1ccc(-c2cnc(C3CCC(C(=O)O)CC3)o2)cc1` (stereo not drawn) [Example 210, 4-(5-(4-(3-(2-Methoxyphenyl)ureido)phenyl)oxazol-2-yl)cyclohexane carboxylic acid] the value was 20 to 50%; for `CC(C)(C)c1ccc(C(=O)Nc2ccc(-c3cnc(C4CCC(C(=O)O)CC4)o3)cc2)cc1` (stereo not drawn) [Example 214, 4-(5-(4-(4-Tert-butylbenzamido)phenyl)oxazol-2-yl)cyclohexanecarboxylic acid], 20 to 50%.
The same measure, in the same setting: for `CC(C)(CCc1ncc(-c2ccc(NC(=O)Nc3cc(F)cc(F)c3)cc2)s1)C(=O)O` [Example 235, 4-(5-(4-(3-(3,5-Difluorophenyl)ureido)phenyl)thiazol-2-yl)-2,2-dimethyl butanoic acid] the value was greater than 50%; for `CC(C)(CCc1ncc(-c2ccc(NC(=O)Nc3cc(F)c(F)cc3F)cc2)s1)C(=O)O` [Example 237, 2,2-Dimethyl-4-(5-(4-(3-(2,4,5-trifluorophenyl)ureido)phenyl)thiazol-2-yl)butanoic acid], greater than 50%.
Turning to `CC(C)(CCc1ncc(-c2ccc(NC(=O)N3CCCCC3)cc2)s1)C(=O)O` [Example 239, 2,2-Dimethyl-4-(5-(4-(piperidine-1-carboxamido)phenyl)thiazol-2-yl)butanoic acid], the inhibition at 1 µM lay in the range of 20 to 50%.
Still for that read-out and setting: the figure for `CC(C)(CCc1ncc(-c2ccc(NC(=O)N3CCOCC3)cc2)s1)C(=O)O` [Example 241, 2,2-Dimethyl-4-(5-(4-(morpholine-4-carboxamido)phenyl)thiazol-2-yl)butanoic acid] is 20 to 50%; for `CN1CCN(C(=O)Nc2ccc(-c3cnc(CCC(C)(C)C(=O)O)s3)cc2)CC1` [Example 243, 2,2-Dimethyl-4-(5-(4-(4-methylpiperazine-1-carboxamido)phenyl)thiazol-2-yl)butanoic acid hydrochloride] it is 20 to 50%.
